Reference: US11325883B2, “Functionalized N,N-dialkylamino phenyl ethers and their method of use” (Temple University—Of The Commonwealth System of Higher …, priority 2017, dated 2022)

What was measured:
[1] = system: Gaucher patient fibroblasts (L444P/L444P, GM08760); assay: GPN induced calcium release phenotypic assay on Gaucher patient cells; format: cell-based, human; conditions: for Maximal % Change in GPN Response / EC50: Gaucher patient cells, 72 hours compound treatment; for Maximal % Change in GPN Response: GPN response with drug/without drug x100; for EC50: Homo sapiens, Fibroblast, 12-point curve in triplicate
Text: Phenotypic Assay: A phenotypic cellular assay utilizing lysosomal storage disorder (LSD) patient derived cells was developed to identify compounds with disease modifying activity to reverse or attenuate the disease phenotype to non-disease levels. […] This functional readout of the LSD diseased state was developed into a high throughput screening assay.
Disruption of lysosomal calcium homeostasis has been linked to the pathophysiology of lysosomal storage disorders including Gaucher disease (Lloyd-Evans, E, Morgan A J, He X, Smith D A, Elliot-Smith E, Sillence D J, Churchill G C, Schuchman E H, Galione A, Platt F M. (2008) Niemann-Pick disease type C1 is a sphingosine storage disease that causes deregulation of lysosomal calcium. Nat Med. 14(11):1247-55. Lloyd-Evans E, Platt F M. (2011) Lysosomal Ca(^2+) homeostasis: role in pathogenesis of lysosomal storage diseases. Cell Calcium. 50(2):200-205. Morgan, A J, Platt, F M, Lloyd-Evans, E and Galione, A (2011) Molecular mechanism of endolysosomal Ca^2+ signaling in health and disease. Biochem. J. 439:349-374.). Calcium release from acidic lysosomal stores can be induced by addition of Gly-Phe-β-napthylamide (GPN), a substrate of cathepsin C, which upon hydrolysis, produces osmotic lysis of lysosomes and release of calcium specifically from lysosomal acidic stores into the cytosol. The increase of intracellular calcium released from lysosomes can be detected with cell membrane permeable calcium sensitive indicators.
(§1) Cells (800 cells/well) were plated with a MultiFlo dispenser (BioTek) and cultured for 24 h at 37° C., 5% CO2. The screening compounds were then added to cells under sterile conditions and continued in culture for 72 hours. Cells were loaded with Screen Quest™ Fluo-8 No Wash Calcium mix (ATT Bio) and analyzed for changes in response to GPN. The data from each well were normalized with basal fluorescence by dividing the maximum fluorescence over the entire real time reading by the initial basal fluorescence. […] EC50 and Hill slope values are determined using a four-parameter dose-response (variable slope) equation in GraphPad Prism. The % change in GPN response is calculated as the ratio of GPN response measured in the presence of drug/GPN response measured in the absence of drug×100. […] The maximal % change in GPN response is calculated as the ratio of GPN response measured in the presence of drug/GPN response measured in the absence of drug×100.
Gaucher patient fibroblasts (Coreill Institute, GM08760) were cultured in EMEM with 15% FBS, 1% Pen/Strep at 37° C./5% CO2. Wild-type patient fibroblasts (Coriell Institute, GM 005659) were used as a control cell line. Cells are plated with a MultiFlo dispenser (800 cells/well in 30 μL of complete growth media) in black/clear bottom 384-well plates and cultured for 24 hours at 37° C., 5% CO2. Compounds of the disclosure are then added to the cells (12 point dose response curve, 150 nM to 30 uM final compound concentration using a 5.0 μL of a 7× stock solution (1.05 μM to 210 μM)) under sterile conditions and continued in culture for 72 hours at 37° C., 5% CO2. For intracellular calcium measurements, media is removed and 20 μL of calcium dye mixture (Screen Quest™ Fluo-8 No Wash Calcium mix, ATT Bioquest) is added to each well, incubated for 30 minutes at 37° C., followed by 22° C. for 30 minutes.

[2] = system: Wild-type patient fibroblasts (GM 005659); conditions: wild type cells
Protocol: as §1
Gaucher patient fibroblasts (Coreill Institute, GM08760) were cultured in EMEM with 15% FBS, 1% Pen/Strep at 37° C./5% CO2. Wild-type patient fibroblasts (Coriell Institute, GM 005659) were used as a control cell line. […] The data from each well were normalized with basal fluorescence by dividing the maximum fluorescence over the entire real time reading by the initial basal fluorescence.

Compound	Maximal % Change in GPN Response [1] [%]	EC50 [1] [nM]	increase in calcium response ([1]; compared with 0.1% DMSO treated Gaucher patient cells) [%]	increase in GPN-induced calcium response [2]
CN(C)CCOc1ccc(C(=O)Cc2ccccc2-c2ccc(F)cc2)cc1 [Example 1, 1-(4-(2-(Dimethylamino)ethoxy)phenyl)-2-(4′-fluoro-[1,1′-biphenyl]-2-yl)ethanone]	250	3600	–	–
CN(C)CCOc1ccc(C(=O)Cc2ccccc2-c2ccccc2Cl)cc1 [Example 2, 2-(2′-Chloro-[1,1′-biphenyl]-2-yl)-1-(4-(2-(dimethylamino)ethoxy)phenyl)ethanone]	160	1800	–	–
CC(C)CC(C(=O)c1ccc(OCCN(C)C)cc1)c1ccccc1-c1ccc(F)cc1 (centres unmarked) [Example 3, 1-(4-(2-(dimethylamino)ethoxy)phenyl)-2-(4′-fluoro-[1,1′-biphenyl]-2-yl)-4-methylpentan-1-one]	400	185	–	–
CN(C)CCOc1ccc(C(=O)C(CC2CC2)c2ccccc2-c2ccc(F)cc2)cc1 (centres unmarked) [Example 4, 3-cyclopropyl-1-(4-(2-(dimethylamino)ethoxy)phenyl)-2-(4′-fluoro-[1,1′-biphenyl]-2-yl)propan-1-one]	360	475	–	–
CCC(C(=O)c1ccc(OCCN(C)C)cc1)c1ccccc1-c1ccc(F)cc1 (centres unmarked) [Example 5, 1-(4-(2-(dimethylamino)ethoxy)phenyl)-2-(4′-fluoro-[1,1′-biphenyl]-2-yl)butan-1-one]	630	266	–	–
CCCC(C(=O)c1ccc(OCCN(C)C)cc1)c1ccccc1-c1ccc(F)cc1 (centres unmarked) [Example 6, 1-(4-(2-(dimethylamino)ethoxy)phenyl)-2-(4′-fluoro-[1,1′-biphenyl]-2-yl)pentan-1-one]	410	424	–	–
CCC(C(=O)c1ccc(OCCNC)cc1)c1ccccc1-c1ccc(F)cc1 (centres unmarked) [Example 7, 2-(4′-fluoro-[1,1′-biphenyl]-2-yl)-1-(4-(2-(methylamino)ethoxy)phenyl)butan-1-one]	515	425	–	–
CCCC(C(=O)c1ccc(OCCNC)cc1)c1ccccc1-c1ccc(F)cc1 (centres unmarked) [Example 8, 2-(4′-fluoro-[1,1′-biphenyl]-2-yl)-1-(4-(2-(methylamino)ethoxy)phenyl)pentan-1-one]	330	356	–	–
CNCCOc1ccc(C(=O)C(CC(C)C)c2ccccc2-c2ccc(F)cc2)cc1 (centres unmarked) [Example 9, 2-(4′-fluoro-[1,1′-biphenyl]-2-yl)-4-methyl-1-(4-(2-(methylamino)-ethoxy)phenyl)pentan-1-one]	617	236	–	–
CC/C(=C(\c1ccccc1)c1ccc(OCCN(C)C)cc1)c1ccccc1 [Tamoxifen, reference compound]	–	–	200±50	30+/−20%
